Results reported in patent US11884631B1 (priority 2023, dated 2024).

What was measured:
[1] = system: Mycobacterium tuberculosis H37Rv; assay: Anti-tubercular activity (MIC), susceptible H37Rv strain; type: cell-based; conditions: ATCC 25177 / H37Rv, MIC = minimum drug concentration inhibiting growth with no color change in the well, read-out: MIC (μg/mL) Susceptible (H37Rv)

Structure (SMILES) | melting point | MIC [1]
Cc1ccc2c(ccc[n+]2CC(=O)c2ccc(Br)cc2)c1.[Br-] | 221 to 222 °C | 
Cc1ccc2c(ccc[n+]2CC(=O)c2cc(C(F)(F)F)cc(C(F)(F)F)c2)c1.[Br-] [Compound 3c, 1-(2-(3,5-Bis(trifluoromethyl)phenyl)-2-oxoethyl)-6-methylquinolin-1-ium bromide] | 246 to 247 °C | 16 µg/mL
Cc1ccc2c(ccc[n+]2CC(=O)c2ccc(F)cc2)c1.[Br-] [Compound 3b, 1-(2-(4-Fluorophenyl)-2-oxoethyl)-6-methylquinolin-1-ium bromide] | 206 to 207 °C | 8 µg/mL
Cc1ccc2c(ccc[n+]2CC(=O)c2ccccc2[N+](=O)[O-])c1.[Br-] [Compound 3a, 6-Methyl-1-(2-(2-nitrophenyl)-2-oxoethyl)quinolin-1-ium bromide] | 218 to 219 °C | 32 µg/mL
